For assay [1], the system named is Pim-2 stably transfected U2OS human osteogenic sarcoma line. Nature of the assay: Pim cell assay U2OS (phospho-BAD normalized against total BAD), Pim-2 transfected. The assay is classed as cell-based. The conditions noted are these: read-out: U2OS Pim2_Cell_IC50. How it is done:
(§1) The cell lines used in the assay were generated by the stable transfection of either Pim-1 or Pim-2 into the U2OS human osteogenic sarcoma line. The assay for determination of the Pim activity in the engineered U2OS cell lines measures levels of phospho-BAD normalized against total BAD protein levels. It was conducted as follows:
(§2) The adherent cells were dissociated from the flasks using non-enzymatic cell dissociation solution (Sigma #C5914). […] The cells were then incubated overnight at 37° C., 5% CO2.
(§3) In addition to the 10-point dosing curve of the test compound, DMSO alone was run as the high control.
(§4) This dilution in DMSO was then diluted again into cell growth medium. Aliquots (12 μL) of the compound diluted in growth medium were then transferred to the appropriate wells of the 96-well plates containing cells to a final DMSO concentration of 0.3%. The cell plates were then incubated with compound for 29 min at 37° C., 5% CO2.
(§5) The cell plates containing lysis buffer were then immediately stored at −70° C.
(§6) These prepared lysates were then assayed for phospho and total BAD according to the manufacturer's protocols (Meso Scale Diagnostics, Cat#K15103C-3 & #K15103D-3). The plates were read on the MSD Sector Imager 6000, and results were calculated according to the assay protocols ((% Phosphoprotein=((2×Phospho signal)/(Phospho signal+Total signal))×100)).

In assay [2] the test system is Pim-1 stably transfected U2OS human osteogenic sarcoma line. The assay is described as follows: Pim cell assay U2OS (phospho-BAD normalized against total BAD), Pim-1 transfected. The assay is classed as cell-based. The procedure: as §1, §2, §3, §4, §5, §6
Assay [3] concerns the target full length recombinant Pim-1 (Homo sapiens (Human), UniProt P11309). Nature of the assay: Pim enzyme assay (HTRF, phosphorylation of biotinylated-BAD (S112) peptide), Pim-1. The assay is classed as biochemical. The settings on record: Pim-1 enzyme assay; read-out: Pim_1_IC50.
Assay [4] deals with full length recombinant Pim-2 (Homo sapiens (Human), UniProt Q9P1W9). The assay is described as follows: Pim enzyme assay (HTRF, phosphorylation of biotinylated-BAD (S112) peptide), Pim-2. The assay is classed as biochemical. The conditions noted are these: read-out: Pim2_IC50. For orientation: Time-resolved FRET reads energy transfer from a long-lived donor to a nearby acceptor.

Assay [5] deals with full length recombinant Pim-3 (Homo sapiens (Human), UniProt Q86V86). Nature of the assay: Pim enzyme assay (HTRF, phosphorylation of biotinylated-BAD (S112) peptide), Pim-3. The assay is classed as biochemical. The settings on record: Pim-3 enzyme assay; read-out: Pim3 IC50. In outline:
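IC50 values were fitted with a 4-parameter logistic model to percent-of-control HTRF signal (Eu anti-phospho-BAD S112 antibody/streptavidin-APC). Reactions used full-length Pim-3 and biotin-BAD (S112) peptide, ran 1 h 30 min at RT (22 °C) in Hepes pH 7.0 buffer with BSA and DTT, and were stopped by 3 mM EDTA.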

Where [6] appears, read: Homo sapiens, U2OS cells, Pim-2 transfected.
[7] abbreviates: Homo sapiens, U2OS, read-out: U2OS Pim1_Cell_IC50.
Setting [8] is: Homo sapiens, U2OS, read-out: U2OS Pim1_Cell_IC50, U2OS cells, Pim-1 transfected.

Like-named read-outs stand apart in the source and are kept apart here.

full length recombinant Pim-1, sequence (P11309 whole entry): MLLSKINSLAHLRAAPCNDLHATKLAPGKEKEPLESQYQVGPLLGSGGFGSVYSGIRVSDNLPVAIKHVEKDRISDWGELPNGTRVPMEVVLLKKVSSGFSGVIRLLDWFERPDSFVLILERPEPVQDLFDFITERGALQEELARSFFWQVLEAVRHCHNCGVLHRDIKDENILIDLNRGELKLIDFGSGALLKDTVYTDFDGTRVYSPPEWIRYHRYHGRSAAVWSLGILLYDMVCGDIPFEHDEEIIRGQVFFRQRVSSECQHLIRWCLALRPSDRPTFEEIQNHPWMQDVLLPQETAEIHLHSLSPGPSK
full length recombinant Pim-2, sequence (Q9P1W9 whole entry): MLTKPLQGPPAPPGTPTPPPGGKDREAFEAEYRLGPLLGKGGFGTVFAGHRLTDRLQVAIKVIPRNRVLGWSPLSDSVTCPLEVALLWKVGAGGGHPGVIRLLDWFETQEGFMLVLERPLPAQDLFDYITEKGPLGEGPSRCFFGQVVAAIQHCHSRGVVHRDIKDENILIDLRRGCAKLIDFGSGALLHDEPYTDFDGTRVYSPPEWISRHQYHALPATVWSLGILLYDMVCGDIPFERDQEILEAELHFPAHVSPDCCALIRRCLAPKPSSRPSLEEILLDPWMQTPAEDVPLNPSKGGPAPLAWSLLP

For `c1cc(C2CC2)nc(-c2c[nH]c3ccc(-c4nnc(NC5CC5)o4)cc23)n1` [Example 257, N-cyclopropyl-5-(3-(4-cyclopropyl-2-pyrimidinyl)-1H-indol-5-yl)-1,3,4-oxadiazol-2-amine], the IC50 amounted to 943 nM in assay [1] (setting [6]), 100 nM in assay [2] (setting [7]), 1.99 nM in assay [3] and 1.41 nM in assay [4] (Pim-2 enzyme assay).
For the compound `CN1CCCC(Nc2ccnc(-c3c[nH]c4ccc(-c5nnc(N)o5)cc34)n2)C1` (centres unmarked) [Example 111, 2-(5-(5-amino-1,3,4-oxadiazol-2-yl)-1H-indol-3-yl)-N-(1-methyl-3-piperidinyl)-4-pyrimidinamine], the IC50 in assay [1] (setting [6]) is over 31600 nM; in assay [2] (setting [7]) it was over 31600 nM; in assay [3], 18.6 nM; in assay [4] (Pim-2 enzyme assay), 6.59 nM.
Take `c1cc(C2CC2)nc(-c2c[nH]c3ccc(-c4nnc(C5CC5)o4)cc23)n1` [Example 43, 2-cyclopropyl-5-(3-(4-cyclopropylpyrimidin-2-yl)-1H-indol-5-yl)-1,3,4-oxadiazole]: the IC50 in assay [1] (setting [6]) is 3390 nM; in assay [2] (setting [7]) it was 247 nM; in assay [3], 7.58 nM; in assay [4] (Pim-2 enzyme assay) it was 4.32 nM.
Regarding `FC(F)(F)CNc1nnc(-c2ccc3[nH]cc(-c4nccc(C5CC5)n4)c3c2)o1` [Example 53, 5-(3-(4-cyclopropylpyrimidin-2-yl)-1H-indol-5-yl)-N-(2,2,2-trifluoroethyl)-1,3,4-oxadiazol-2-amine], the IC50 in assay [1] (setting [6]) amounted to 475 nM; in assay [2] (setting [7]), 34.5 nM; in assay [3] it was 0.407 nM; in assay [4] (Pim-2 enzyme assay), 0.638 nM.
On to `CNc1nnc(-c2ccc3[nH]cc(-c4cccc(OC5CCC5)n4)c3c2)s1` [Example 232, 5-(3-(6-(cyclobutyloxy)-2-pyridinyl)-1H-indol-5-yl)-N-methyl-1,3,4-thiadiazol-2-amine], for which the IC50 was over 31600 nM in assay [1] (setting [6]), 1720 nM in assay [2] (setting [7]), 57 nM in assay [3] and 104 nM in assay [4] (Pim-2 enzyme assay).
For `CC[C@@H]1COCCN1c1nnc(-c2ccc3[nH]cc(-c4cncc(C5CC5)n4)c3c2)o1` (stereo in doubt) [Example 252, 3-(6-cyclopropyl-2-pyrazinyl)-5-(5-(3-ethyl-4-morpholinyl)-1,3,4-oxadiazol-2-yl)-1H-indole], the IC50 is over 31600 nM in assay [1] (setting [6]), 310 nM in assay [2] (setting [7]), 9.66 nM in assay [3] and 29.8 nM in assay [4] (Pim-2 enzyme assay).
With `Nc1nnc(-c2ccc3[nH]cc(-c4cccc(NC5CCCC5)n4)c3c2)s1` [Example 16, 5-(3-(6-(cyclopentylamino)pyridin-2-yl)-1H-indol-5-yl)-1,3,4-thiadiazol-2-amine 2,2,2-trifluoroacetate], the IC50 is 3090 nM in assay [1] (Homo sapiens, U2OS) and 21.1 nM in assay [4].
Consider `CC(C)Nc1cncc(-c2c[nH]c3ccc(-c4nnc(N)s4)cc23)n1` [Example 206, 6-(5-(5-amino-1,3,4-thiadiazol-2-yl)-1H-indol-3-yl)-N-(1-methylethyl)-2-pyrazinamine], for which the IC50 in assay [5] amounted to 1.15 nM; in assay [1] (setting [6]), 945 nM; in assay [4] (Pim-2 enzyme assay), 9.65 nM.
Consider `c1cc2[nH]cc(-c3cncc(C4CC4)n3)c2cc1-c1nnc(N2CCOCC2)o1` [Example 245, 3-(6-cyclopropyl-2-pyrazinyl)-5-(5-(4-morpholinyl)-1,3,4-oxadiazol-2-yl)-1H-indole], for which the IC50 in assay [1] (setting [6]) is over 31600 nM; in assay [2] (setting [8]), 217 nM; in assay [3], 20.3 nM.
In the case of `Nc1nnc(-c2ccc3[nH]cc(-c4cccc(N5CCCCC5)n4)c3c2)s1` [Example 172, 5-(3-(6-(1-piperidinyl)-2-pyridinyl)-1H-indol-5-yl)-1,3,4-thiadiazol-2-amine], the IC50 was over 31600 nM in assay [1] (setting [6]), 414 nM in assay [2] (setting [7]), 40.5 nM in assay [3] and 68.8 nM in assay [4] (Pim-2 enzyme assay).
`CC(C)Nc1cncc(-c2c[nH]c3ccc(-c4nc(N)ns4)cc23)n1` [Example 64, 5-(3-(6-(isopropylamino)pyrazin-2-yl)-1H-indol-5-yl)-1,2,4-thiadiazol-3-amine]: the IC50 in assay [1] (setting [6]) is over 10000 nM; in assay [2] (setting [7]) it was 200 nM; in assay [3], 4.26 nM; in assay [4] (Pim-2 enzyme assay) it was 58.7 nM.
In the case of `C[C@H]1COCCN1c1nnc(-c2ccc3[nH]cc(-c4cncc(C5CC5)n4)c3c2)o1` [Example 248, 3-(6-cyclopropyl-2-pyrazinyl)-5-(5-((3S)-3-methyl-4-morpholinyl)-1,3,4-oxadiazol-2-yl)-1H-indole], the IC50 in assay [1] (setting [6]) was over 31600 nM; in assay [2] (setting [8]) it was 192 nM; in assay [3], 13.9 nM; in assay [4] (Pim-2 enzyme assay) it was 20.9 nM.
Take `c1cc2[nH]cc(-c3cncc(C4CC4)n3)c2cc1-c1nnc(NC2COC2)o1` [Example 251, 5-(3-(6-cyclopropyl-2-pyrazinyl)-1H-indol-5-yl)-N-3-oxetanyl-1,3,4-oxadiazol-2-amine]: the IC50 was found to be 2010 nM in assay [1] (setting [6]), 107 nM in assay [2] (setting [7]), 3.2 nM in assay [3] and 5.84 nM in assay [4] (Pim-2 enzyme assay).
Regarding `CC1COCCN1c1nnc(-c2ccc3[nH]cc(-c4cncc(C5CC5)n4)c3c2)o1` (stereo in doubt) [Example 249, 3-(6-cyclopropyl-2-pyrazinyl)-5-(5-((3R)-3-methyl-4-morpholinyl)-1,3,4-oxadiazol-2-yl)-1H-indole], the IC50 was over 31600 nM in assay [1] (U2OS cells, Pim-2 transfected); 375 nM in assay [2] (read-out: U2OS Pim1_Cell_IC50, U2OS cells, Pim-1 transfected); 16.1 nM in assay [3]; 48.9 nM in assay [4] (Pim-2 enzyme assay).
`Fc1ccccc1-c1c[nH]c2ccc(-c3nnc(N[C@H]4CCCNC4)s3)cc12` (stereo in doubt) [Example 139, N-(5-(3-(2-fluorophenyl)-1H-indol-5-yl)-1,3,4-thiadiazol-2-yl)-3-piperidinamine]: the IC50 in assay [5] came to 18.4 nM; in assay [2] (setting [8]), 578 nM; in assay [3] it was 29.3 nM; in assay [4] (Pim-2 enzyme assay), 106 nM.
Consider `Nc1nnc(-c2ccc3[nH]cc(-c4cccc(N5CCCCC5=O)n4)c3c2)s1` [Example 181, 1-(6-(5-(5-amino-1,3,4-thiadiazol-2-yl)-1H-indol-3-yl)-2-pyridinyl)-2-piperidinone], for which the IC50 was 47 nM in assay [5], 2260 nM in assay [2] (setting [7]), 98.1 nM in assay [3] and 223 nM in assay [4] (Pim-2 enzyme assay).
Turning to `COC[C@H]1CCCN1c1ccnc(-c2c[nH]c3ccc(-c4nnc(N)o4)cc23)n1` [Example 113, 5-(3-(4-((2R)-2-(methoxymethyl)-1-pyrrolidinyl)-2-pyrimidinyl)-1H-indol-5-yl)-1,3,4-oxadiazol-2-amine], the IC50 in assay [1] (setting [6]) is over 10000 nM; in assay [2] (setting [7]), 380 nM; in assay [3], 13.7 nM; in assay [4] (Pim-2 enzyme assay), 25.7 nM.
`N[C@H]1CCN(c2nnc(-c3ccc4[nH]cc(-c5ccccc5F)c4c3)s2)C1` (stereo in doubt) [Example 140, 1-(5-(3-(2-fluorophenyl)-1H-indol-5-yl)-1,3,4-thiadiazol-2-yl)-3-pyrrolidinamine]: the IC50 in assay [5] stood at 13.4 nM; in assay [2] (setting [7]), 871 nM; in assay [3], 73.2 nM; in assay [4] (Pim-2 enzyme assay), 244 nM.
For `NCCCNc1nnc(-c2ccc3[nH]cc(-c4ccccc4F)c3c2)s1` [Example 12, N-(5-(3-(2-fluorophenyl)-1H-indol-5-yl)-1,3,4-thiadiazol-2-yl)propane-1,3-diamine], the IC50 stood at 13.7 nM in assay [5], 3170 nM in assay [2] (setting [7]), 51.6 nM in assay [3] and 155 nM in assay [4] (Pim-2 enzyme assay).
In the case of `Fc1ccccc1-c1c[nH]c2ccc(-c3nnc(NCc4cccc5[nH]ccc45)s3)cc12` [Example 143, 5-(3-(2-fluorophenyl)-1H-indol-5-yl)-N-(1H-indol-4-ylmethyl)-1,3,4-thiadiazol-2-amine], the IC50 stood at 84.5 nM in assay [5], 5200 nM in assay [2] (setting [7]), 145 nM in assay [3] and 3020 nM in assay [4] (Pim-2 enzyme assay).
In the case of `Nc1nnc(-c2ccc3[nH]cc(-c4cncc(-c5ccccc5Cl)n4)c3c2)o1` [Example 117, 5-(3-(6-(2-chlorophenyl)-2-pyrazinyl)-1H-indol-5-yl)-1,3,4-oxadiazol-2-amine], the IC50 in assay [5] was determined as 21.8 nM; in assay [2] (setting [8]) it was 227 nM; in assay [3], 16.5 nM; in assay [4] (Pim-2 enzyme assay), 57.3 nM.

(Values after patent publication US9321756B2, “Azole compounds as PIM inhibitors” (priority 2011, dated 2016).)
